Laboratory results published in publication PMC10041534, “Development of Fluorescent 4-[4-(3H-Spiro[isobenzofuran-1,4′-piperidin]-1′-yl)butyl]indolyl Derivatives as High-Affinity Probes to Enable the Study of σ Receptors via Fluorescence-Based Techniques” (Journal of Medicinal Chemistry, 2023).
Several values for one entry are separate records, joined by “and”; a condition that tells them apart may be missing. Equal values may be shown once. Read-outs that look alike come from different tables or passages of the source. Marks after values point to notes of the source that are not given here.

Key:
[1] = Fluorescence spectroscopy and quantum yield measurements; format: physicochemical
[2] = target: T1, σ2 receptor (Rattus norvegicus, UniProt Q5U3Y7); assay: σ2 receptor radioligand binding assay with [3H]DTG, rat liver membranes; settings: for Ki: [3H]DTG with 1 μM (+)-pentazocine, rat liver membranes, mean of at least two experiments in duplicate, read-out: Ki ± SEM σ2; for σ2 selectivity over σ1: from Ki values at σ1 and σ2
T1 construct: from tissue; host or cells: rat liver (Wistar Hannover rats, Envigo)
T1 sequence (Q5U3Y7 1-176): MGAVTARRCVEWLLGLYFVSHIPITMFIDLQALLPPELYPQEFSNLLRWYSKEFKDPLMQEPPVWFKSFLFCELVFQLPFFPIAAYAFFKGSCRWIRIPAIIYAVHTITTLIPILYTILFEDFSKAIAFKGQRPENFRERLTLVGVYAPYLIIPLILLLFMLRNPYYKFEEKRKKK
Method: (§1) All of the procedures for the binding assays were previously described. σ1 and σ2 receptor binding assays were carried out according to the literature.[25] […] Incubations were stopped by addition of 1 mL of ice-cold buffer [50 mM TRIS (pH 8.0)], and then the suspension was filtered through GF/B presoaked in 0.3% polyethylenimine (PEI) for at least 60 min prior to use. The filters were washed twice with 1 mL of ice-cold buffer. […] Incubations were stopped by addition of 1 mL of ice-cold buffer [50 mM TRIS (pH 8.0)], and then the suspension was filtered through GF/B presoaked in 0.5% polyethylenimine (PEI) for at least 60 min prior to use. The filters were washed twice with 1 mL of ice-cold buffer. […] Scatchard parameters (Kd and Bmax) and apparent inhibition constants (Ki) were determined by nonlinear curve fitting using GraphPad Prism (version 5.0).[64]

[3] = target: T2, σ1 receptor (Cavia porcellus, UniProt Q60492); assay: σ1 receptor radioligand binding assay with (+)-[3H]pentazocine, guinea pig brain membranes; settings: mean of at least two experiments in duplicate, read-out: Ki ± SEM σ1
T2 construct: from tissue; host or cells: guinea pig brain without cerebellum (male Dunkin guinea pigs, Envigo)
Method: as §1

[4] = target: T3, σ2 receptor (Homo sapiens, UniProt Q5BJF2); assay: Flow cytometry studies in MCF7 and MCF7KO cells; format: cell-based; parameters: This cell line was selected on the basis of its high σ2 receptor expression levels; endogenous in cells; host or cells: MCF7 (and MCF7KO, partial TMEM97 knockdown by shRNA); settings: flow cytometry, data not shown
Method: Subsequently, the cells were harvested by trypsinization and resuspended in 250 μL of FACS-PBS. The fluorescence intensity was measured by flow cytometry using a BD LSRFortessaTM X-20 cell analyzer (Becton Dickinson, Palo Alto, CA). For this, in total 20000 cells per sample were evaluated. The results were analyzed and quantified using BD FACSDivaTM software.

[5] = target: σ1 receptor; settings: Figure 1 reference compounds and fluorescent ligands; cited from earlier work
[6] = target: σ2 receptor; settings: cited from earlier work
[7] = target: T3, σ2 receptor; assay: Flow cytometry σ2 receptor binding assay with fluorescent ligand in place of the radioligand, MCF7 cells; parameters: This cell line was selected on the basis of its high σ2 receptor expression levels; endogenous in cells; host or cells: MCF7 (and MCF7KO, partial TMEM97 knockdown by shRNA)
Method: Similarly, 2 × 10^5 MCF7 cells/well were seeded in a 12-well plate and allowed to recover for 24 h at 37 °C.
At the end of the incubation periods, cells were washed twice with PBS, detached with 200 mL of Cell Dissociation Solution (Sigma Chemical Co.) for 10 min at 37 °C, centrifuged at 13000g for 5 min, and resuspended in 500 mL of PBS. The fluorescence was recorded using a Bio-Guava easyCyte 5 Flow Cytometry System (Millipore, Billerica, MA), with a 530 nm band-pass filter. For each analysis, 50000 events were collected and analyzed with the InCyte software (Millipore).

[8] = Figure 1 reference compounds and fluorescent ligands, read-out: σ2 Ki

T3 sequence (Q5BJF2 whole entry): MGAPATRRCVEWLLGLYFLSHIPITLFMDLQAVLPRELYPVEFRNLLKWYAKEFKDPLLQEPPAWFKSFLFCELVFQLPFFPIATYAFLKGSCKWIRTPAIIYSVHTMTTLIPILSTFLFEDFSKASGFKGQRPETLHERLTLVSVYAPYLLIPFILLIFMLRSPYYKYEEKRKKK
T2 sequence (Q60492 whole entry): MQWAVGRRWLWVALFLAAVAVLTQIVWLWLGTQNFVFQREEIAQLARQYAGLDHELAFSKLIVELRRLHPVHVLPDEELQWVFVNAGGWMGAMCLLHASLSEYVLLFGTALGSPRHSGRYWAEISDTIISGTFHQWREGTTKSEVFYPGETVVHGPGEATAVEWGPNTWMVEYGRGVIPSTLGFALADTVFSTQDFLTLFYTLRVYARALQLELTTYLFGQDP

Row | Structure (SMILES) | quantum yield ([1]; CHCl3) | λem ([1]; CHCl3) | λex ([1]; CHCl3) | Ki [2] | σ2 selectivity over σ1 [2] | Ki [3] | other results
1 | C[N+]1=C(/C=C/C=C/C=C/C=C2/N(CCCCCC(=O)Nc3ccc4ccn(CCCCN5CCC6(CC5)OCc5ccccc56)c4c3)c3ccccc3C2(C)C)C(C)(C)c2ccccc21.[I-] [Compound 30, 2-[(1E,3E,5E)-7-{(Z)-1-[6-({1-[4-(3H-Spiro[isobenzofuran-1,4′-piperidin]-1′-yl)butyl]-1H-indol-6-yl}amino)-6-oxohexyl]-3,3-dimethylindolin-2-ylidene}hepta-1,3,5-trien-1-yl]-1,3,3-trimethyl-3H-indol-1-ium] | 40.24% | 787 nm | 762 nm | 39.4 ± 6.1 nM | ~10 fold | 569 ± 85 nM | –
2 | CN(C)c1ccc2c(c1)C(=O)N(c1ccc3ccn(CCCCN4CCC5(CC4)OCc4ccccc45)c3c1)C2=O [Compound 23, 2-{1-[4-(3H-Spiro[isobenzofuran-1,4′-piperidin]-1′-yl)butyl]-1H-indol-6-yl}-5-(dimethylamino)isoindoline-1,3-dione] | 1.31% | 490 nm | 395 nm | 5.07 ± 1.07 nM | 60 fold | 296 ± 71 nM | signals in MCF7 cells [4]: dose-dependent signals; signals in MCF7 cells upon administration of 2 [4]: abated
3 | COc1cc2c(cc1OC)CN(CCCN1CCc3c(OCCCCCCN4C(=O)c5ccc(N(C)C)cc5C4=O)cccc3C1=O)CC2 [Compound 3] | – | – | – | – | – | – | Ki [5]: > 5000 nM
4 | C[N+]1=C(/C=C/C=C/C=C/C=C2\N(CCCCCC(=O)NCCCCCCn3cc(CCCCN4CCC5(CC4)OCc4ccccc45)c4ccccc43)c3ccccc3C2(C)C)C(C)(C)c2ccccc21.[I-] [Compound 20, 2-{(1E,3E,5E)-7-[(E)-1-{6-[(6-{3-[4-(3H-Spiro[isobenzofuran-1,4′-piperidin]-1′-yl)butyl]-1H-indol-1-yl}hexyl)amino]-6-oxohexyl}-3,3-dimethylindolin-2-ylidene]hepta-1,3,5-trien-1-yl}-1,3,3-trimethyl-3H-indol-1-ium] | 39.08% | 787 nm | 762 nm | 39.8 ± 4.2 nM | – | 88.8 ± 15.1 nM | –
5 | CN(C)c1ccc2c(c1)C(=O)N(CCCCCCn1cc(CCCCN3CCC4(CC3)OCc3ccccc34)c3ccccc31)C2=O [Compound 17, 2-(6-{3-[4-(3H-Spiro[isobenzofuran-1,4′-piperidin]-1′-yl)butyl]-1H-indol-1-yl}hexyl)-5-(dimethylamino)isoindoline-1,3-dione] | 6.85% and 6.80% | 490 nm | 395 nm | 3.84 ± 0.8 nM | 3–10 fold | 38.1 ± 5.2 nM | signals in MCF7 cells [4]: dose-dependent signals; signals in MCF7 cells upon administration of 2 [4]: abated
6 | CN(C)c1ccc2c(c1)C(=O)N(CCCn1cc(CCCCN3CCC4(CC3)OCc3ccccc34)c3ccccc31)C2=O [Compound 16, 2-(3-{3-[4-(3H-Spiro[isobenzofuran-1,4′-piperidin]-1′-yl)butyl]-1H-indol-1-yl}propyl)-5-(dimethylamino)isoindoline-1,3-dione] | 6.85% | 490 nm | 395 nm | 10.1 ± 1.1 nM | 3–10 fold | 39.3 ± 9 nM | signals in MCF7 cells [4]: dose-dependent signals; signals in MCF7 cells upon administration of 2 [4]: abated
7 | CC1CCN(CCCCc2cccc3cc(OCCCCCCN4C(=O)c5ccc(N(C)C)cc5C4=O)ccc23)CC1 [Compound 5] | – | – | – | – | – | – | Ki [6, 8]: 45.6 nM; Ki [5]: 5.2 nM
8 | O=C(COc1ccc(-c2ccc3n2[B-](F)(F)[N+]2=C(c4cccs4)C=CC2=C3)cc1)NCCCCCCn1cc(CCCCN2CCC3(CC2)OCc2ccccc23)c2ccccc21 [Compound 18, N-(6-{3-[4-(3H-Spiro[isobenzofuran-1,4′-piperidin]-1′-yl)butyl]-1H-indol-1-yl}hexyl)-2-{4-[5,5-difluoro-7-(thiophen-2-yl)-5H-5λ^4,6λ^4-dipyrrolo[1,2-c:2′,1′-f][1,3,2]diazaborinin-3-yl]phenoxy}acetamide] | – | – | – | 220 ± 12 nM | – | 473 ± 30 nM | λem ([1]; dissolved in CH3OH): 630 ^b nm; λex ([1]; dissolved in CH3OH): 587 ^b nm
9 | c1ccc2c(c1)COC21CCN(CCCCn2ccc3ccccc32)CC1 [Compound 8, reference compound] | – | – | – | – | 60 fold | – | Ki [6, 8]: 0.43 nM
10 | CC1CCN(CCOc2ccc(Cl)cc2)CC1 [Compound 31, 1-[2-(4-chlorophenoxy)ethyl]-4-methylpiperidine] | – | – | – | – | – | – | Ki ([6]; read-out: Ki at the σ2 receptor): 239 nM
11 | O=C(COc1ccc(C2=[N+]3C(=Cc4ccc(-c5cccs5)n4[B-]3(F)F)C=C2)cc1)Nc1ccc2ccn(CCCCN3CCC4(CC3)OCc3ccccc34)c2c1 [Compound 28, N-{1-[4-(3H-Spiro[isobenzofuran-1,4′-piperidin]-1′-yl)butyl]-1H-indol-6-yl}-2-{4-[5,5-difluoro-7-(thiophen-2-yl)-5H-5λ^4,6λ^4-dipyrrolo[1,2-c:2′,1′-f][1,3,2]diazaborinin-3-yl]phenoxy}acetamide] | – | – | – | – | – | > 5000 nM | λem ([1]; dissolved in CH3OH): 630 ^b nm; λex ([1]; dissolved in CH3OH): 587 ^b nm
12 | COc1cc2c(cc1OC)CN(CCCN1CCc3c(OC)cccc3C1=O)CC2 [Compound 2] | – | – | – | – | – | – | Ki [6, 8]: 4.24 nM; Ki ([7]; displacement of compound 19 (100 nM)): 4.07 nM; Ki ([7]; displacement of compound 29 (100 nM)): 5.04 nM; Ki [5]: 2440 nM
